This is an account of results in ChEMBL document CHEMBL1159013, “Additional bioactive compounds and trilobacin, a novel highly cytotoxic acetogenin, from the bark of Asimina triloba” (J Nat Prod, 1992).

≈ marks a conversion by molar mass, not a printed value.

The test system of series [1] is A549. Description: Cytotoxicity against human A549 cells after 7 days. It is filed as functional. The conditions noted are these: for EC50: Homo sapiens, A549, 168 h, read-out: ED50 (the source's name).
The nature of series [2]: Toxicity against brine shrimp larvae. The settings on record: artemia, in vivo. It is filed as organism-based.
In series [3] the test system is MCF7. Description: Cytotoxicity against human MCF7 cells after 7 days. The settings on record: MCF7, 168 h, read-out: ED50 (the source's name). It is filed as functional.
Series [4] has as its system HT-29. Description: Cytotoxicity against human HT-29 cells after 7 days. It is filed as functional. The conditions noted are these: for EC50: Homo sapiens, HT-29, 168 h, read-out: ED50 (the source's name).
The subject of series [5] is SF-268. Description: Growth inhibition of human SF268 cells after 3 days. Type of series: functional. The settings on record: SF-268, 72 h.
For series [6], the system named is SK-OV-3. Description: Growth inhibition of human SKOV3 cells after 3 days. Type of series: functional. The conditions noted are these: SK-OV-3, 72 h.
Series [7] has as its system COLO 205. Description: Growth inhibition of human COLO205 cells after 3 days. Type of series: functional. The settings on record: COLO 205, 72 h.
For series [8], the system named is SK-MEL-28. Description: Growth inhibition of human SK-MEL-28 cells after 3 days. Type of series: functional. The settings on record: SK-MEL-28, 72 h.
Series [9] deals with A549. Description: Growth inhibition of human A549 cells after 3 days. Type of series: functional. The settings on record: A549, 72 h.
The nature of series [10]: Growth inhibition of human RXF631 cells after 3 days. It is filed as functional. The settings on record: RXF 631, 72 h.
Series [11] concerns KM-20L2. Description: Growth inhibition of human KM20L2 cells after 3 days. The conditions noted are these: KM-20L2, 72 h. It is filed as functional.
Series [12] has as its system SN12C. Description: Growth inhibition of human SN12C cells after 3 days. It is filed as functional. The conditions noted are these: 72 h.
The subject of series [13] is OVCAR-8. Description: Growth inhibition of human OVCAR8 cells after 3 days. Type of series: functional. The settings on record: OVCAR-8, 72 h.
The test system of series [14] is XF498. Description: Growth inhibition of human XF498 cells after 3 days. Type of series: functional. The settings on record: XF498, 72 h.
The test system of series [15] is HOP-92. Description: Growth inhibition of human HOP92 cells after 3 days. Type of series: functional. The settings on record: HOP-92, 72 h.
The test system of series [16] is LOX IMVI. Description: Growth inhibition of human LOXIMVI cells after 3 days. Type of series: functional. The conditions noted are these: 72 h.
In series [17] the test system is SW-620. Description: Growth inhibition of human SW620 cells after 3 days. It is filed as functional. The conditions noted are these: SW-620, 72 h.
In series [18] the test system is EKVX. Description: Growth inhibition of human EKVX cells after 3 days. Type of series: functional. The conditions noted are these: 72 h.
A short description of series [19]: Growth inhibition of human LXFL529 cells after 3 days. It is filed as functional. The settings on record: LXFL 529, 72 h.
The subject of series [20] is HCC 2998. Description: Growth inhibition of human HCC2998 cells after 3 days. Type of series: functional. The conditions noted are these: HCC 2998, 72 h.
Series [21] has as its system DMS-273. Description: Growth inhibition of human DMS273 cells after 3 days. Type of series: functional. The conditions noted are these: DMS-273, 72 h.
In series [22] the test system is NCI-H460. Description: Growth inhibition of human NCI-H460 cells after 3 days. It is filed as functional. The conditions noted are these: NCI-H460, 72 h.
Series [23] deals with SR. Description: Growth inhibition of human SR cells after 3 days. Type of series: functional. The conditions noted are these: 72 h.
Series [24] relates to MOLT-4. Description: Growth inhibition of human MOLT4 cells after 3 days. It is filed as functional. The settings on record: MOLT-4, 72 h.
Series [25] has as its system SK-MEL-2. Description: Growth inhibition of human SK-MEL-2 cells after 3 days. It is filed as functional. The settings on record: SK-MEL-2, 72 h.
Series [26] concerns TK-10. Description: Growth inhibition of human TK10 cells after 3 days. The conditions noted are these: TK-10, 72 h. It is filed as functional.
Series [27] relates to SNB-75. Description: Growth inhibition of human SNB75 cells after 3 days. It is filed as functional. The settings on record: SNB-75, 72 h.
Series [28] relates to NCI-H322M. Description: Growth inhibition of human NCI-H322M cells after 3 days. Type of series: functional. The conditions noted are these: 72 h.
The test system of series [29] is OVCAR-3. Description: Growth inhibition of human OVCAR-3 cells after 3 days. It is filed as functional. The conditions noted are these: OVCAR-3, 72 h.
Series [30] deals with SNB-78. Description: Growth inhibition of human SNB78 cells after 3 days. It is filed as functional. The conditions noted are these: SNB-78, 72 h.
Series [31] deals with OVCAR-5. Description: Growth inhibition of human OVCAR5 cells after 3 days. The conditions noted are these: OVCAR-5, 72 h. It is filed as functional.
The subject of series [32] is 786-0. Description: Growth inhibition of human 786-0 cells after 3 days. Type of series: functional. The settings on record: 786-0, 72 h.
In series [33] the test system is IGROV-1. Description: Growth inhibition of human IGROV1 cells after 3 days. Type of series: functional. The conditions noted are these: IGROV-1, 72 h.
In series [34] the test system is M14. Description: Growth inhibition of human M14 cells after 3 days. Type of series: functional. The settings on record: M14, 72 h.
Series [35] deals with UACC-62. Description: Growth inhibition of human UACC62 cells after 3 days. The conditions noted are these: UACC-62, 72 h. It is filed as functional.
The subject of series [36] is Malme-3M. Description: Growth inhibition of human MALME-3M cells after 3 days. The settings on record: 72 h. Type of series: functional.
Series [37] relates to CCRF-CEM. Description: Growth inhibition of human CCRF-CEM cells after 3 days. It is filed as functional. The conditions noted are these: 72 h.
In series [38] the test system is SF-539. Description: Growth inhibition of human SF539 cells after 3 days. It is filed as functional. The conditions noted are these: SF-539, 72 h.
Series [39] relates to DLD-1. Description: Growth inhibition of human DLD1 cells after 3 days. It is filed as functional. The conditions noted are these: DLD-1, 72 h.
The test system of series [40] is HOP-62. Description: Growth inhibition of human HOP62 cells after 3 days. It is filed as functional. The settings on record: HOP-62, 72 h.
For series [41], the system named is CAKI-1. Description: Growth inhibition of human Caki1 cells after 3 days. It is filed as functional. The settings on record: CAKI-1, 72 h.
Series [42] deals with M19-MEL. Description: Growth inhibition of human M19-MEL cells after 3 days. It is filed as functional. The conditions noted are these: 72 h.
Series [43] deals with HT-29. Description: Growth inhibition of human HT-29 cells after 3 days. It is filed as functional. The settings on record: HT-29, 72 h.
Series [44] relates to U-251. Description: Growth inhibition of human U251 cells after 3 days. It is filed as functional. The conditions noted are these: U-251, 72 h.
Series [45] deals with A498. Description: Growth inhibition of human A498 cells after 3 days. It is filed as functional. The settings on record: A498, 72 h.

The term LC50 denotes the concentration lethal to half of the exposed cells or organisms. Read a low LC50 as greater toxicity. A word on the GI50: it is the concentration giving 50% growth inhibition. Read a low GI50 as more potent growth inhibition.

In the case of `O=C(/C=C/c1ccc(O)cc1)NCCc1ccc(O)cc1` [N-P-COUMAROYL TYRAMINE], the EC50 turned out to be 3240 ng/mL (≈ 11400 nM) in series [1], 716 ng/mL (≈ 2530 nM) in series [3] and 674 ng/mL (≈ 2380 nM) in [4]. The LC50 in [2] turned out to be 6700 ng/mL (≈ 23600 nM).
On to `COc1cc(/C=C/C(=O)NCCc2ccc(O)cc2)ccc1O` [N-TRANS-FERULOYL TYRAMINE], for which the figures for the EC50 in [1], in series [3] and in [4] were 13400 ng/mL (≈ 42600 nM), 4760 ng/mL (≈ 15200 nM) and 23600 ng/mL (≈ 75300 nM), respectively. Besides, in series [2], the LC50 came to 6700 ng/mL (≈ 21400 nM).
The matching figures for `COc1cc([C@H]2OC[C@H]3[C@@H]2CO[C@@H]3c2cc(OC)c(O)c(OC)c2)cc(OC)c1O` [SYRINGARESINOL]: 14900 ng/mL (≈ 35600 nM), 3690 ng/mL (≈ 8820 nM), 15500 ng/mL (≈ 37000 nM) and 13600 ng/mL (≈ 32500 nM).
Turning to `CCCCCCCCCC[C@@H](O)[C@H]1CC[C@@H]([C@H]2CC[C@H]([C@H](O)CCCCCCCCCC[C@@H](O)CC3=C[C@H](C)OC3=O)O2)O1` [TRILOBACIN], the GI50 came out at 1700 nM in [5]; 8200 nM in series [6]; 0.00349 ng/mL (≈ 0.0056 nM) in series [7]; 0.00201 ng/mL (≈ 0.00323 nM) in series [8]; 0.00164 ng/mL (≈ 0.00263 nM) in series [9]; 1800 nM in series [10]. Moreover, the GI50 in [11] was 0.00375 ng/mL (≈ 0.00602 nM); in series [12] it was 1640 nM; in series [13], 0.00293 ng/mL (≈ 0.0047 nM); in [14] it was 0.00203 ng/mL (≈ 0.00326 nM); in series [15], 0.00276 ng/mL (≈ 0.00443 nM); in series [16] it was 0.0012 ng/mL (≈ 0.00193 nM). Moreover, the concentration for 50% growth inhibition (GI50) in series [17] amounted to 2640 nM; in series [18] it was 0.002 ng/mL (≈ 0.00321 nM); in series [19] it was 0.00217 ng/mL (≈ 0.00348 nM); in [20], 0.00292 ng/mL (≈ 0.00469 nM); in series [21] it was 0.00177 ng/mL (≈ 0.00284 nM); in series [22] it was 0.00293 ng/mL (≈ 0.0047 nM). For the same molecule, the GI50 worked out at 1090 nM in [23]; 0.00116 ng/mL (≈ 0.00186 nM) in series [24]; 0.00228 ng/mL (≈ 0.00366 nM) in series [25]; 7000 nM in series [26]; 0.00319 ng/mL (≈ 0.00512 nM) in series [27]; 4060 nM in series [28]. For the same molecule, the GI50 in series [29] was found to be 0.00109 ng/mL (≈ 0.00175 nM); in series [30] it was 2050 nM; in series [31] it was 4330 nM; in series [32], 0.0022 ng/mL (≈ 0.00353 nM); in [33], 0.00481 ng/mL (≈ 0.00772 nM); in series [34], 0.0104 ng/mL (≈ 0.0167 nM). The GI50 in [35] was 2670 nM; in series [36], 0.00144 ng/mL (≈ 0.00231 nM); in [37], 0.0017 ng/mL (≈ 0.00273 nM); in [38] it was 0.00138 ng/mL (≈ 0.00222 nM); in series [39] it was 0.0027 ng/mL (≈ 0.00433 nM); in series [40] it was 0.00234 ng/mL (≈ 0.00376 nM). In addition, the GI50 was determined as 0.00883 ng/mL (≈ 0.0142 nM) in series [41]; 0.00263 ng/mL (≈ 0.00422 nM) in [42]; 0.00216 ng/mL (≈ 0.00347 nM) in [43]; 4330 nM in series [44]; 0.00686 ng/mL (≈ 0.011 nM) in series [45]. For the same molecule, the results for the ED50 in series [1] and in series [4] were 8.02 ×10⁻⁴ ug/ml and under 1 ×10⁻¹⁵ ug/ml, respectively. In addition, the LC50 in series [2] came to 8.7 ng/mL (≈ 14 nM). Further, the EC50 in series [3] worked out at 329 ng/mL (≈ 528 nM).
